# Data as given in US9889145B2, “Methods to treat infections” (priority 2013, dated 2018).
# Entries after “also recorded” stand apart in the source; their conditions may differ.
# Tests used:
# [1] = test system: NO; type: cell-based, mice
# [2] = test system: iNOS; type: cell-based, mice; details: 4 hours
# [3] = test system: CD4+ T-cells; experiment: IFN-γ and IL-2 production by stimulated CD4+ T-cells; type: cell-based, mice; details: low dose (100 pg/ml) or high dose (10,000 pg/ml) PGE-2; Day 6; vs stimulated
# [4] = test system: Arg2; type: cell-based, mice
# [5] = test system: NO; type: cell-based, mice; remark: listed apart in the source
# [6] = test system: iNOS; type: cell-based
# [7] = test system: B. pseudomallei; type: cell-based, Burkholderia pseudomallei
# [8] = test system: PGE-2; type: in vivo, mice; details: n=2
# [9] = daily maximum dose of 15 mg/kg in mice, cited from earlier work
# [10] = test system: B. pseudomallei; type: in vivo, Burkholderia pseudomallei; details: n=2
# [11] = test system: Burkholderia pseudomallei strain 1026b; type: in vivo
# [12] = test system: PGE-2; type: cell-based, murine
# [13] = test system: Arg2; set-up: species or system mice; details: mouse, in vivo, 15 mg/kg
# [14] = test system: Burkholderia thailandensis (Bt); type: cell-based
# [15] = test system: PGE-2; set-up: species or system mice; details: mouse, in vivo
# [16] = test system: Arg2; experiment: Arg2 in lung and liver of Bt-infected mice (Western blot, immunohistochemical staining); type: in vivo
# [17] = test system: arginase; experiment: Quantitative assay for urea in lungs of Bt-infected mice (indirect measurement of Arg activity); type: in vivo; details: 80 mg/kg Celecoxib vs mock-treated Bt-infected mice
# [18] = test system: B. thailandensis; set-up: species or system Burkholderia thailandensis; details: in vivo
# [19] = test system: BALB/c mice infected with B. thailandensis; details: mouse, in vivo
# [20] = test system: IL-1α, IL-6 and KC; experiment: IL-1α, IL-6 and KC in the lungs of Bt-infected mice; type: in vivo; details: 80 mg/kg Celecoxib vs mock; 48 hours post-infection with Bt
smiles,measurement,setting,value
CCCCC[C@H](O)/C=C/[C@H]1[C@H](O)CC(=O)[C@@H]1C/C=C\CCCC(=O)O [PGE-2],NO (nitrite) levels after adding PGE-2,[1],reduced NO levels; also recorded: reduced nitrite levels
same,iNOS mRNA expression,[2],no differences in iNOS mRNA expression; also recorded: did not observe any apparent change in iNOS mRNA expression
same,IFN-gamma production by stimulated CD4+ T-cells,[3],reduces
same,IL-2 production by stimulated CD4+ T-cells,[3],reduces
same,increase in Arg2 expression,[4],376 fold
same,NO levels after adding PGE-2,[5],reduced NO levels
"CS(=O)(=O)Nc1ccc([N+](=O)[O-])cc1OC1CCCCC1 [NS398, N-[2-(cyclohexyloxy)-4-nitrophenyl]-methanesulfonamide]",iNOS expression,[6],two-fold increase in iNOS expression
same,Bps intracellular survival,[7],reduction in Bps survival; also recorded: enhanced intracellular killing of B. pseudomallei
same,NO production (nitrite),[1],higher production of NO; also recorded: increase in nitrite
same,PGE-2 concentration in lung tissue,[8],reduce PGE-2 concentration in lung tissue
same,PGE-2 concentration in stomach tissue,[8],reduce PGE-2 concentration in stomach tissue
same,iNOS mRNA expression,[2],no differences in iNOS mRNA expression; also recorded: did not observe any apparent change in iNOS mRNA expression
same,lung PGE-2,[9]; previously documented pharmacological efficacy,reducing lung PGE-2
same,associated toxicity,[9]; previously documented,without any associated toxicity
same,Arg2 expression,[4],reduction in Arg2 expression
same,growth of B. pseudomallei in lung tissue (CFU/mg),[10],suppresses the growth of B. pseudomallei in lung tissue
same,growth of B. pseudomallei in stomach tissue (CFU/mg),[10],suppresses the growth of B. pseudomallei in stomach tissue
same,bacteria recovered from the lungs at the study endpoint,[11]; in vivo,No bacteria were recovered
same,bacteria recovered from the lungs of the two animals euthanized on day 5 and day 7 (hind leg paralysis),[11]; in vivo,No bacteria were recovered
same,colonization of spleen and liver,[11]; in vivo,20-100 cfu
same,first signs of illness,[11]; in vivo,≥ 5
same,lung bacteria of the one exceptional animal at the study endpoint,[11]; in vivo,104 cfu
same,weight loss throughout the study,[11]; in vivo,no evidence of weight loss
same,survival / recovery over 10 days,[11]; n=8,appeared to have recovered from the infection; also recorded: protection against lethal pulmonary melioidosis
same,PGE-2 levels in supernatants,[12],reduced
same,NO production,[5],higher production of NO
same,"Arg2 expression in lungs (Western blot, densitometry)",[13],decreases
same,survival of intracellular Bt,[14],decrease in survival of intracellular bacteria
"N=C(NO)NCC[C@H](N)C(=O)O [nor-NOHA, nor-N^ω-hydroxy-L-arginine]",Bps intracellular survival,[7],decrease in B. pseudomallei intracellular survival
same,NO (nitrite) levels,[1],increase in NO levels; also recorded: increase in nitrite levels
same,NO levels,[5],increase in NO levels
same,Bt intracellular survival,[14],decrease
"Cc1ccc(-c2cc(C(F)(F)F)nn2-c2ccc(S(N)(=O)=O)cc2)cc1 [Celecoxib, 4-[5-(4-methylphenyl)-3-(trifluoromethyl)pyrazol-1-yl]benzenesulfonamide]",PGE-2 in the lungs (ELISA),[15],PGE-2 reduction
same,number of Arg2 positively-stained cells in lungs (immunohistochemical staining),[16]; 80 mg/kg Celecoxib vs mock-treated Bt-infected mice,reduction in the number of Arg2 positively-stained cells
same,Arg2 in the lungs (Western blot),"[16]; 80 mg/kg Celecoxib vs mock-treated mice, 48 hours after pulmonary Bt infection",reduction in Arg2 in the lungs
same,urea levels in the lungs,[17],lower
same,bacterial burden in liver,[18],reduction in bacterial burdens
same,bacterial burden in lung,[18],reduction in bacterial burdens
same,bacterial burden in spleen,[18],reduction in bacterial burdens
same,lung inflammation (histological examination),[19],reduced
same,IL-1α in the lungs,[20],reduced
same,IL-6 in the lungs,[20],reduced
same,KC in the lungs,[20],reduced
